From PubChem BioAssay (NCI)
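48-hour exposure; five concentrations; linearly interpolated endpoints. GI50 marks 50% less growth. TGI is the concentration that stops growth completely.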

Columns and labels:
Test in all cases: growth of human tumour cells (NCI), 48 h
[1] = tested on: EKVX NSCLC
[2] = tested on: IGROV1 ovarian
[3] = tested on: HT29 colon
[4] = tested on: SNB-75 CNS
[5] = tested on: PC-3 prostate
[6] = tested on: MDA-N
[7] = tested on: RXF 393 renal
[8] = tested on: MCF7 breast
[9] = tested on: SK-MEL-28 melanoma
[10] = tested on: A549 NSCLC
[11] = tested on: OVCAR-5 ovarian
[12] = tested on: COLO 205 colon
[13] = tested on: SF-539 CNS
[14] = tested on: BT-549 breast

SMILES	TGI [1] [µM]	TGI [2] [µM]	TGI [3] [µM]	TGI [4] [µM]	TGI [5] [µM]	TGI [6] [µM]	TGI [7] [µM]	TGI [8] [µM]	TGI [9] [µM]	TGI [10] [µM]	TGI [11] [µM]	TGI [12] [µM]	TGI [13] [µM]	TGI [14] [µM]	GI50 [2] [µM]	GI50 [3] [µM]	GI50 [5] [µM]	GI50 [10] [µM]	GI50 [11] [µM]
COc1cc(/C=C2\CCC(C)c3c2nc(N)c(C#N)c3-c2cc(OC)c(OC)c(OC)c2)cc(OC)c1OC (stereo not given)	> 100	> 100	> 100	15	> 100	> 100	> 100	> 100	> 100	> 100	> 100								
COc1ccc2c(c1)CC1NC2Cc2ccccc21 (stereo not given)	> 100	> 100	> 100	> 100					> 100	> 100	> 100	> 100	> 100						
CCOC(=O)Cc1nc2nn(Cc3ccccc3)cc2c(=O)[nH]1	> 100	> 100	> 100	> 100		> 100	> 100	> 100	> 100	> 100	> 100	> 100	> 100	> 100					
CSC1=N/C(=C\c2ccc(Cl)cc2)C(=O)N1CN1CCOCC1	> 100	> 100	94.4	> 100	> 100	> 100		> 100	> 100	> 100	> 100	> 100							
O=C(/C=C(\O)C(=O)O)/C=C(\O)c1ccccc1Cl	> 100	> 100	> 100	> 100			> 100		> 100	> 100	> 100	> 100	> 100						
CN(C)Cc1cc(C(=O)/C=C/c2c(Cl)cccc2Cl)cc(CN(C)C)c1O	23.2	21.8	11.6	15.7	19	12.7	18.6	14.7	20.9	29.5	32.2	7.66	34.4						
CCCN(CCC)C(=S)N/N=C/c1cccc(C)n1	8.34	1.56	> 100	0.991	62.9	22.6	0.637	0.67	91.3	10.3	47.2	0.0435	0.545						
COc1ccccc1NC(=S)Nc1cccc(C)n1	> 100	> 100	> 100	63.5	> 100		> 100	> 100	> 100	> 100	> 100	> 100	> 100	> 100					
O=C1OC(c2ccccc2)(c2ccccc2)CC1CN1CCOCC1 (stereo not given)	> 100	> 100	15.1	49.1					32.9	24.5	67.5	18.4	32.6						
c1ccc2c(NCCCCCCCCNc3cccc4ccccc34)cccc2c1	> 10	> 100	> 100	83.2					40.3	> 100	> 100	35.4	72.2						
CC1(C)C[C@H]2C3=CC[C@@H]4[C@@]5(C)CC[C@H](O)C(C)(C)[C@@H]5CC[C@@]4(C)[C@]3(C)C[C@@H](O)[C@@]23C[C@@H]1OC3=O	> 100	> 100	> 100	> 100	> 100			> 100	> 100	> 100	> 100	> 100	> 100						
Nc1ccccc1C(=O)NNC(=O)c1ccccc1N	> 100	> 100	> 100	> 100	> 100	> 100	> 100	> 100	> 100	> 100	> 100	> 100	> 100						
CCCCC1(OC(=O)CCC(=O)O)CCC2(CCC(C)C(C/C=C(C)/C=C/C(O)C(C)/C=C/C(=O)O)O2)OC1CC/C(C)=C/C(=O)O (stereo not given)	25.7	4.89	43.6	6.74			4.58		5.07	36.6	14.4	35.1	3.51						
CC1C(c2ccccc2)=CCON1c1ccccc1 (stereo not given)	> 100	> 100	> 100	> 100			> 100		> 100	> 100	> 100	> 100	> 100						
Clc1ccc2c(Cl)ncnc2c1I	99.4	> 100	> 100	75			> 100		> 100	> 100	> 100	> 100							
Cc1nc(Nc2ccccc2)sc1C(=O)NNC(N)=O	> 100	> 100		80.7			> 100		> 100	> 100	> 100	> 100	> 100						
Cc1ccc2nc(CN3CCCCC3)cc(=O)n2c1	> 100	> 100	> 100	> 100	> 100			> 100	> 100	> 100	> 100	> 100	> 100	> 100					
COC(=O)c1cccc(C)c1C1CN=NC12Cc1c(ccc(C)c1C)C2=O (stereo not given)	57.9	> 100	> 100	> 100		> 100	92.4	> 100	> 100	> 100	> 100		> 100						
BrC12C3C4C5C(C(C43)C13OCCO3)C52 (stereo not given)	> 100	> 100	> 100	> 100			> 100		> 100	> 100	> 100	> 100	> 100						

SMILES	TGI [1] [µM]	TGI [2] [µM]	TGI [3] [µM]	TGI [4] [µM]	TGI [5] [µM]	TGI [6] [µM]	TGI [7] [µM]	TGI [8] [µM]	TGI [9] [µM]	TGI [10] [µM]	TGI [11] [µM]	TGI [12] [µM]	TGI [13] [µM]	TGI [14] [µM]	GI50 [2] [µM]	GI50 [3] [µM]	GI50 [5] [µM]	GI50 [10] [µM]	GI50 [11] [µM]
CC(C)C1=CC(=O)C(C)(C2=NC(C)(C)CO2)c2ccccc21 (stereo not given)	> 100	> 100	> 100	> 100			> 100		> 100	> 100		> 100	> 100						
Cc1cccc(NC(=O)CSc2nnc(Cc3ccccc3)o2)c1	> 100	> 100	> 100	> 100			> 100		> 100	> 100	> 100	> 100	> 100						
CC[N+](CC)(CC)Cc1cn(S(=O)(=O)c2ccccc2)c2ccccc12		> 100	> 100	> 100					> 100	> 100	> 100	> 100	> 100						
CCOC(=O)C(NC(=O)NCc1ccc(F)cc1)C(F)(F)F (stereo not given)	> 100	> 100	> 100	> 100	> 100	> 100	> 100		> 100	> 100	> 100	> 100	> 100	> 100					
O=C(/C=C/c1c(O)c2ccccc2[nH]c1=O)CC(=O)C(=O)Nc1cccc(O)c1	> 100	> 100	> 100	> 100	> 100			> 100	> 100	> 100	> 100	> 100	> 100	> 100					
Cc1c(C(=O)Nc2ccc(Cl)c(C(F)(F)F)c2)oc2cc(O)ccc2/c1=N\NC(N)=S	> 100	> 100	> 100	> 100			> 100		> 100	> 100	> 100	> 100	> 100						
CC1=C(C(=O)OC23CC4CC(CC(C4)C2)C3)C(c2ccccc2OC(F)F)C(C(=O)OC23CC4CC(CC(C4)C2)C3)=C(C)N1 (stereo not given)		> 100	> 100	> 100		> 100	> 100	> 100	> 100	> 100	> 100	> 100	> 100	> 100					
CC(=O)CCC(=O)CC(O)(C(F)(F)F)C(F)(F)F		31.1	34.7	65.2			34.5	37.1	39.6	41.9	29.9	34.4	31.9						
CC(=O)/C(=C/N1C(=O)CC(=O)NC1=S)C(=O)Nc1ccccc1C	> 100	> 100	53.5	> 100		> 100	> 100	> 100	> 100	> 100	> 100	> 100	> 100	> 100					
CCOC(=O)C1C(C(C)C)C2(C#N)C(=N)OC1(C)C2(C#N)C#N (stereo not given)	> 100	> 100	> 100	74.4	> 100	33.6	> 100	> 100	> 100	> 100	> 100	82.1	> 100						
CO[C@H]1C[C@@H]2CC[C@@H](C)[C@@](O)(O2)C(=O)C(=O)N2CCCC[C@H]2C(=O)O[C@H]([C@H](C)C[C@@H]2CC[C@@H](OC(=O)C(C)(CO)CO)[C@H](OC)C2)CC(=O)[C@H](C)/C=C(\C)[C@@H](O)[C@@H](OC)C(=O)[C@H](C)C[C@H](C)/C=C/C=C/C=C/1C	> 52.2	15.3	> 100	24.4	> 81.6	> 73.4	21.9		> 100	> 100	> 100	> 60.4	5.23		0.000946	0.182	< 0.0487	0.95	> 59.1
NC(=S)Nc1nnc(-c2ccc(-c3nnc(NC(N)=S)o3)cc2)o1	> 100	> 100	> 100	> 100			> 100		> 100	> 100	> 100	> 100	> 100						
O=S(=O)([N-]c1nc2ccccc2nc1-[n+]1ccccc1)c1ccccc1	> 100	> 100	> 100	> 100	> 100		> 100	> 100		> 100	> 100	> 100	> 100	> 100					
Cc1nc2c(s/c(=N\N)n2-c2ccccc2)c(=O)[nH]1	> 100	> 100	> 100	> 100			> 100		> 100	> 100	> 100	> 100	> 100						
CC1=C(N(C)C)C(=O)c2nc3n(c2C1=O)CCC3OC(N)=O (stereo not given)	36	30.6	35.6	42.5					34.4	35.1	34	33.1	31.8						
O=c1c2cc([N+](=O)[O-])cnc2sn1-c1ccc(Oc2ccccc2)cc1	> 100	> 100	> 100	> 100	> 100	> 100		> 100	> 100	> 100	> 100	> 100	> 100	> 100					
CN=C1Nc2ccccc2C(=S)N2CSC[C@@H]12			> 100		> 100		> 100	> 100	> 100	> 100	> 100	> 100	> 100						
N=c1oc2cc(O)c(O)cc2cc1C(N)=O	> 100	> 100	> 100	96.3			> 100		> 100	> 100	> 100	> 100	> 100						
C1=Cc2nc1c(-c1ccccc1)c1ccc([n-]1)c(-c1ccccc1)c1nc(c(-c3ccccc3)c3ccc([n-]3)c2-c2ccccc2)C=C1.[Zn+2]	> 100	> 100	> 100	> 100					> 100	> 100	> 100	> 100	> 100						
